Assay in all cases: Two-electrode voltage-clamp concentration-activation by the natural agonist, receptor expressed in Xenopus oocytes
Holding throughout (assay type): cell-based
(In two-electrode clamp one electrode senses voltage and the other passes current.)

One assay concerns the target Hsa-GABA α1β2γ2 (Homo sapiens, UniProt P14867+P18507+P47870). The arrangement: The corresponding open reading frames (ORF) were cloned into the pT7-TS transcription vector; expressed in transfected cells; host or cells: Xenopus laevis oocytes, cRNA injection. The settings on record: concentration-activation curve. From the text: (§1) Complementary DNA (cDNA) encoding for the human GABAA proteins α1 (NM_001127645.2), α2 (NM_001377146.1), α3 (KJ620007.1), α4 (NM_000809.4), α5 (NM_000810.4), α6 (NM_000811.3), β2 (XM_054352312.1), β3 (M82919.1), γ2 (NM_000816.3) and δ (NM_000815.5) were ordered from Genewiz (www.genewiz.com; Leipzig, Germany); for each gene, GenBank accession numbers are provided in parentheses. When necessary, silent mutations were introduced to break NheI or XhoI internal restriction sites. The corresponding open reading frames (ORF) were cloned into the pT7-TS transcription vector (introducing X. laevis β-globin untranslated cDNA to the 5’ and 3’ ends of the gene), following a procedure described in detail in a previous publication. The same process was used to obtain cDNA encoding canine GABAA proteins α4 (XM_025435560.1), α6 (XM_022417729.1) and δ (XM_005620414.2). Gene α2 (XM_025435664.1), α3 (XM_549343.5), α5 (XM_545805.6) and β3 (XM_025437408.1) were obtained by PCR; GenBank reference accession numbers are provided in parentheses. RNA extraction, cDNA synthesis and PCR amplification were performed as described previously. Total RNA was extracted from a piece of dog brain (Beagle breed; Canis lupus familiaris) from which 1 µg of total RNA (DNase-treated) was reverse-transcribed to cDNA using a (dT)30 primer and SuperScript III Reverse Transcriptase (Invitrogen, Thermo Fisher Scientific, Waltham, MA, USA). Gene-specific primers (Additional file 1: Table S1) were designed using Primer 3 software (http://frodo.wi.mit.edu/). […] The cycling conditions were: 98 °C for 30 s; then 38 cycles of 98 °C for 10 s, 58 °C for 30 s and 72 °C for 90 s; followed by 72 °C for 5 min. The dog subunits α1 (XM_546261.5), β2 (XM_014113040.1) and γ2 (XM_546259.5) had been previously amplified and described in a study by Rufener et al..
(§2) Defoliculated X. laevis oocytes ordered from Ecocyte Bioscience (Dortmund, Germany) were microinjected with 15–25 nl of cRNA solution (5–50 ng/μl) per oocyte using an automated injector (Roboinject; Multi Channel Systems MCS GmbH, Reutlingen, Germany) and then incubated at 18 °C. All recordings were made 1–5 days post-cRNA injection and were performed at 18 ± 4 °C. Cells were superfused with OR2 medium (NaCl 88 mM, KCl 2.5 mM, HEPES 5 mM, CaCl2•2H2O 1.8 mM, MgCl2•7H2O 1.0 mM, pH 7.4). To ensure that γ2 subunits were integrated into the heteropentamers, we injected fivefold more γ2 than the other subunit cRNAs. Diazepam is a positive allosteric modulator of GABAR only if γ2 subunits are present. Therefore, we used this method to confirm the presence of human and dog GABAA receptor containing the γ2 subunit.
(§3) Voltage-clamp measurements were performed as described by Rufener et al.. Oocytes were impaled with two electrodes filled with 3 M KCl, and their membrane potentials were maintained at − 80 mV throughout the experiment. […] Recordings were performed using an automated process equipped with standard two-electrode voltage-clamp configuration (HiClamp system; Multi Channel Systems MCS GmbH). Data were filtered at 10 Hz, captured at 100 Hz and analyzed using proprietary data acquisition and analysis software in MATLAB (Mathworks Inc., Natick, MA, USA). Additional analyses were performed using Excel (Microsoft, Redmond, WA, USA). […] Graphing the maximum inward currents against the log of agonist concentration produces typical concentration-activation and concentration-inhibition curves, which can be accurately described using individual Hill equations.

Another assay concerns the target Hsa-GABA α2β2γ2 (Homo sapiens, UniProt P18507+P47869+P47870). The arrangement: The corresponding open reading frames (ORF) were cloned into the pT7-TS transcription vector; expressed in transfected cells; host or cells: Xenopus laevis oocytes, cRNA injection. The settings on record: concentration-activation curve.
From the text: as §1, §2, §3

Another assay concerns the target Hsa-GABA α2β3γ2 (Homo sapiens, UniProt P18507+P28472+P47869). The arrangement: The corresponding open reading frames (ORF) were cloned into the pT7-TS transcription vector; expressed in transfected cells; host or cells: Xenopus laevis oocytes, cRNA injection. The note with it: concentration-activation curve.
From the text: as §1, §2, §3

The next assay concerns the target Hsa-GABA α6β2γ2 (Homo sapiens, UniProt P18507+P47870+Q16445). Further details: The corresponding open reading frames (ORF) were cloned into the pT7-TS transcription vector; expressed in transfected cells; host or cells: Xenopus laevis oocytes, cRNA injection. The note with it: concentration-activation curve.
From the text: as §1, §2, §3

A further assay addresses Clu-GABA α1β2γ2 (Canis lupus familiaris, UniProt A0A2H4NNI8+A0A8I3RPG5+E2RSQ0).
From the text: as §1, §2, §3

For the next assay, the target named is Clu-GABA α3β2γ2 (Canis lupus familiaris, UniProt A0A8I3PRS3+A0A8I3RPG5+E2RSQ0).
From the text: as §1, §2, §3

The target in a further assay is Clu-GABA α2β3γ2 (Canis lupus familiaris, UniProt A0A8I3NUI4+A0A8I3S1N5+E2RSQ0).
From the text: as §1, §2, §3

For the next assay, the target named is Clu-GABA α2β2γ2 (Canis lupus familiaris, UniProt A0A8I3RPG5+A0A8I3S1N5+E2RSQ0).
From the text: as §1, §2, §3

The target in a further assay is Clu-GABA α5β2γ2 (Canis lupus familiaris, UniProt A0A8I3PC22+A0A8I3RPG5+E2RSQ0).
From the text: as §1, §2, §3

Where [1] appears, read: agonist, 10 s applications, Xenopus oocytes, −80 mV.

Experimental findings from paper PMC12144822 (Parasites & Vectors, 2025) are described below.

SMILES strings stand for the structures. pEC50: −log10 of the molar value.

In general, pEC50 refers to −log10 of the EC50, conventionally taken in molar units.

Clu-GABA α5β2γ2, sequence (A0A8I3PC22 32-462): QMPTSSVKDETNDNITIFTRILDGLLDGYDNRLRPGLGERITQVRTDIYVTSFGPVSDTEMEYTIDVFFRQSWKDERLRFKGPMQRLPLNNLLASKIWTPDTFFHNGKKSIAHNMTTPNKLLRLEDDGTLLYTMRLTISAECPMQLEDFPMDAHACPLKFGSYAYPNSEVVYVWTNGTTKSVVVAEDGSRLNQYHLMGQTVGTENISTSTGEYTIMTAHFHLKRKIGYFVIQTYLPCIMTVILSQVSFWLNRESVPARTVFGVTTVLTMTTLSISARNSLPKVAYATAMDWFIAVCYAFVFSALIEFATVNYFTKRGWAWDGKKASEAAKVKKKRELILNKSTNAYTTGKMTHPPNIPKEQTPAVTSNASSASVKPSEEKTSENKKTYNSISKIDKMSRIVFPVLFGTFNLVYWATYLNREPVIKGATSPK
Clu-GABA α5β2γ2, sequence (A0A8I3RPG5 25-473): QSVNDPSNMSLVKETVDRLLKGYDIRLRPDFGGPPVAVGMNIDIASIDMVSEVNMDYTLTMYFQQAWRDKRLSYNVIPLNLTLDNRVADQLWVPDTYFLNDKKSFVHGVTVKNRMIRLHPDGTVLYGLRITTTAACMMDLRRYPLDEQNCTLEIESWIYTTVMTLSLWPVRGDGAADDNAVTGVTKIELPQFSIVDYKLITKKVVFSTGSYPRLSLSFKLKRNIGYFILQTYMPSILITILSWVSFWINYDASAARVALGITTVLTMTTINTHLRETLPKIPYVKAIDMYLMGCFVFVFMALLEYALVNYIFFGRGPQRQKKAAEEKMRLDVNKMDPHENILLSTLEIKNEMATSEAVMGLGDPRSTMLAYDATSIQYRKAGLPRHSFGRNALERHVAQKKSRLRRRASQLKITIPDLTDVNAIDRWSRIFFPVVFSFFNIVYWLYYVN
Clu-GABA α5β2γ2, sequence (E2RSQ0 40-467): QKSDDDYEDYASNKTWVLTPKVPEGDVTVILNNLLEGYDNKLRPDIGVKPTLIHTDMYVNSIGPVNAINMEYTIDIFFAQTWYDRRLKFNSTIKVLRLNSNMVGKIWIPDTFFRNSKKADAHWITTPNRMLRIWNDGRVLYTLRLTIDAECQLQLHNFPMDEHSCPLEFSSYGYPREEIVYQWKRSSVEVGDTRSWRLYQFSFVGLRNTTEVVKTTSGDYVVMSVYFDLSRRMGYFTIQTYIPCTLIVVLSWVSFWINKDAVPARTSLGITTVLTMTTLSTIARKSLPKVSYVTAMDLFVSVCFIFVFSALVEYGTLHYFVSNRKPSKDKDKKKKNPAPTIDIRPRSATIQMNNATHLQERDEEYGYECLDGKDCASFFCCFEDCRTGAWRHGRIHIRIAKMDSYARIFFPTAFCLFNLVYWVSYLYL
Clu-GABA α1β2γ2, sequence (A0A2H4NNI8 28-456): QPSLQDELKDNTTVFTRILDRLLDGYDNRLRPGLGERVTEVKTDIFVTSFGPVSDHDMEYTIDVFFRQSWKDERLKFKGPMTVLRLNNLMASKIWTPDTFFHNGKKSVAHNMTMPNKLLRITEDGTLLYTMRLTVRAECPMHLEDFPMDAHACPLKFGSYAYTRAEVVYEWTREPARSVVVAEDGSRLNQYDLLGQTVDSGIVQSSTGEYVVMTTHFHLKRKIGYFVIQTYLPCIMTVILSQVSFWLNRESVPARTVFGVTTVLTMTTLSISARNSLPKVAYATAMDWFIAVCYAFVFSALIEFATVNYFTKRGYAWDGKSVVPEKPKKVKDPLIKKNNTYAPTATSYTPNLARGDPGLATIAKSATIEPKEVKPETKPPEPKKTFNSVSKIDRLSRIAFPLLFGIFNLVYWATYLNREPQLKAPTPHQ
Clu-GABA α1β2γ2, sequence (A0A8I3RPG5 25-473): as the sequence (A0A8I3RPG5 25-473) above
Clu-GABA α1β2γ2, sequence (E2RSQ0 40-467): as the sequence (E2RSQ0 40-467) above
Clu-GABA α3β2γ2, sequence (A0A8I3PRS3 29-259): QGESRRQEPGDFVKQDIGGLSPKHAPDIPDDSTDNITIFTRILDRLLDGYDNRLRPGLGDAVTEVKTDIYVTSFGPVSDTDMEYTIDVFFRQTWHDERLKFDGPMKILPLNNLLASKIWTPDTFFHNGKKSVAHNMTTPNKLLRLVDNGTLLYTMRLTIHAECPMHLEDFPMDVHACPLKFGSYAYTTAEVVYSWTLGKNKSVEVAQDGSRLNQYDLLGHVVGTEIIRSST
Clu-GABA α3β2γ2, sequence (A0A8I3RPG5 25-473): as the sequence (A0A8I3RPG5 25-473) above
Clu-GABA α3β2γ2, sequence (E2RSQ0 40-467): as the sequence (E2RSQ0 40-467) above

Consider `NCCCC(=O)O` [GABA, gamma-aminobutyric acid], for which the “nH (Hill coefficient)” value at Hsa-GABA α1β2γ2 worked out at 1.7; on Hsa-GABA α2β2γ2 it was 1.4; at Hsa-GABA α2β3γ2 it was 1.2; on Hsa-GABA α6β2γ2, 1.1; at Clu-GABA α1β2γ2 (concentration-activation curve), 1.0; on Clu-GABA α3β2γ2 (concentration-activation curve), 0.8. Further, the results for the “nH (Hill coefficient)” value at Clu-GABA α2β3γ2 (concentration-activation curve), at Clu-GABA α2β2γ2 (concentration-activation curve) and on Clu-GABA α5β2γ2 (concentration-activation curve) were 1.6, 1.3 and 1.1, respectively. Besides, the pEC50 on Clu-GABA α1β2γ2 (setting [1]) is 5.00; on Clu-GABA α3β2γ2 (setting [1]) it was 4.39; on Clu-GABA α2β3γ2 (setting [1]) it was 5.07; at Clu-GABA α2β2γ2 (setting [1]), 4.38; at Clu-GABA α5β2γ2 (setting [1]) it was 5.09.
